Reference: patent publication US9549921B2, “Heterocyclic compounds and methods of use thereof for the treatment of hepatitis C” (priority 2014, dated 2017)

Experiments:
HCV replicon genotype 1a = test: HCV replicon assay, genotype 1a (cell ELISA for NS3/4A); type: cell-based, hepatitis C virus; conditions: Hepatitis C virus, 96 h, read-out: 1a IC50 (nM), HCV genotype 1a replicon cells, 96 hours incubation, NS3/4A ELISA readout, % of DMSO control
In short: (§1)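 Readout is NS3/4A protein level from an antibody-based cell ELISA, serving as an indirect measure of replicon RNA; IC50 fitted with a four-parameter function relative to DMSO control. Replicon cells, kept under G418 beforehand, were plated with serial compound dilutions minus G418 for 96 hours.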

HCV replicon genotype 1b = test: HCV replicon assay, genotype 1b (cell ELISA for NS3/4A); type: cell-based, hepatitis C virus; conditions: Hepatitis C virus, 96 h, read-out: 1b IC50 (nM), HCV genotype 1b replicon cells, 96 hours incubation, NS3/4A ELISA readout, % of DMSO control
In short: as §1

SMILES | IC50 (HCV replicon genotype 1a) [nM] | IC50 (HCV replicon genotype 1b) [nM]
CNC(=O)c1c(-c2ccc(F)cc2)oc2cc(N(C)S(C)(=O)=O)c([C@H]3CCCN(S(=O)(=O)Cc4cccnc4)C3)cc12 [Example 140, 2-(4-fluorophenyl)-N-methyl-6-[methyl(methylsulfonyl)amino]-5-{(3R)-1-[(pyridin-3-ylmethyl)sulfonyl]piperidin-3-yl}-1-benzofuran-3-carboxamide] | 20.5 | 16.5
CNC(=O)c1c(-c2ccc(F)cc2)oc2cc(N(C)S(C)(=O)=O)c([C@H]3CCCN(S(=O)(=O)CCc4ccccc4)C3)cc12 [Example 141, 2-(4-fluorophenyl)-N-methyl-6-[methyl(methylsulfonyl)amino]-5-{(3R)-1-[(2-phenylethyl)sulfonyl]piperidin-3-yl}-1-benzofuran-3-carboxamide] | 10.6 | 14.2
CNC(=O)c1c(-c2ccc(F)cc2)oc2cc(N(C)S(C)(=O)=O)c([C@H]3CCCN(S(=O)(=O)c4cccc(C)c4)C3)cc12 [Example 142, 2-(4-fluorophenyl)-N-methyl-6-[methyl(methylsulfonyl)amino]-5-{(3R)-1-[(3-methylphenyl)sulfonyl]piperidin-3-yl}-1-benzofuran-3-carboxamide] | 198 | 91.7
CNC(=O)c1c(-c2ccc(F)cc2)oc2cc(N(C)S(C)(=O)=O)c([C@H]3CCCN(S(=O)(=O)c4cn(CC(C)C)nc4C)C3)cc12 [Example 143, 2-(4-fluorophenyl)-N-methyl-5-[(3R)-1-{[3-methyl-1-(2-methylpropyl)-1H-pyrazol-4-yl]sulfonyl}piperidin-3-yl]-6-[methyl(methylsulfonyl)amino]-1-benzofuran-3-carboxamide] | 315 | 214
